Data on two compounds can be found in US20260374782A1, “NEW COMPOUNDS, PROCESSES FOR PREPARING THE SAME AND THEIR USE AS DRUGS” (B&A ONCOMEDICAL, priority 2022, published 2026).

Values joined by “and” are separate entries in the source; they are usually repeats but may differ in a detail not shown here. Equal entries are not always repeated.

Assay [1] deals with CA3 pyramidal neurons in hippocampus. In words: Giant depolarizing potentials (GDPs) current density in CA3 pyramidal neurons, hippocampal slices, whole-cell recordings. The format is cell-based, mice. The conditions noted are these: for GDPs current density (normalized): individual cells; for activity at 0.1 µM / activity at 0.3 µM / activity at 1 µM / activity at 3 µM / activity at 10 µM: Mus musculus, Pyramidal neuron, mean, read-out: GDPs current density, Mean (normalized); for block of GDPs in CA3 pyramidal neurons: in words. An excerpt: FIG. 2. Brain slice (hippocampus) with electrical stimulation and recording
FIG. 3. Normalized GDP current density in CA3 pyramidal neurons in presence of NKCC1 inhibitor
Panel A. Normalized GDP current density in CA3 pyramidal neurons according to the concentration of compound 57 in μM Panel B. Normalized GDP current density in CA3 pyramidal neurons according to the concentration of compound 51 in μM Panel C. Normalized GDP current density in CA3 pyramidal neurons according to the concentration of compound 57 and compound 51 in μM.
51 and 57 were tested to evaluate their basic neuronal intrinsic properties and excitability. Current-clamp whole-cell recordings were performed in CA3 pyramidal neurons in hippocampal slices from P14-15 mice with a bipolar stimulation electrode (FIG. 2).

The test system of assay [2] is CA1 pyramidal neurons. Kind of assay: Seizure-like events (SLE) triggered by tetanus stimulation of stratum radiatum in hippocampus, cell-attached recording. The assay is classed as cell-based. As to conditions: for anticonvulsive activity / suppression of GABAAR-mediated depolarization during SLEs: 2 μM, in words. The procedure:
FIG. 4. Cell-attached recording Tetanus in CA1 pyramidal neurons in presence of compound 51 (20 stimulus, 100 Hz, 4 consecutive traces superimposed), expressed in picoampere per second. The upper bars are representing the 100 Hz stimulation of stratum radiatum in control conditions, and the lower bars are representing 30 minutes after application of 2 μM of compound 51.
FIG. 5. Cell-attached recording Tetanus in CA1 pyramidal neurons in presence of compound 57 (20 stimulus, 100 Hz, 4 consecutive traces superimposed), expressed in picoampere per second. The upper bars are representing the 100 Hz stimulation of stratum radiatum in control conditions, and the lower bars are representing 30 minutes after application of 2 μM of compound 57.
FIG. 6. Post-tetanus frequency (normalized) in presence or not of 2 μM of compound 51 (withing 20 seconds window s after tetanus stimulation) (paired two-tailed t test: p=1*e^−4, n=5 cells). The error bars represent standard error of the mean.
FIG. 7. Post-tetanus frequency (normalized) in presence or not of 2 μM of compound 57 (withing 20 seconds window s after tetanus stimulation) (paired two-tailed t test: p=1*e^−4, n=5 cells). The error bars represent standard error of the mean.
Use of a NKCC1 inhibitor to block the activation of NKCC1 can reduce the [Cl^−]i, and thereby attenuate the excitatory GABAAR responses during epilepsy. Therefore, anticonvulsant effects of 51 on modulating the GABA polarity in acute seizure models was investigated. The seizure-like events in CA1 pyramidal neurons were triggered by tetanic stimulation of stratum radiatum in hippocampus by 51 (FIG. 4) and 57 (FIG. 5).

In the case of `CCCCNc1cc(C(=O)O)cc(S(=N)(=O)NC)c1Oc1ccccc1` (stereo not drawn) [Compound 51, 3-(butylamino)-5-(methylaminosulfonimidoyl)-4-phenoxy-benzoic acid], in assay [1] (0.1 μM), the “GDPs current density (normalized)” value is 0.6538 and 1.003 and 0.8458 and 0.6095 and 0.2984; the activity at 0.1 µM is 68.2%. Besides, in assay [1] (0.3 μM), the “GDPs current density (normalized)” value was 0.2304 and 0.3999 and 0.22 and 0.9979 and 1.222 and 0.1863; the activity at 0.3 µM stood at 54.3%. In addition, in assay [1] (1 μM), the “GDPs current density (normalized)” value is 0.2253 and 0.1713 and 0.1814 and 0.3747 and 0.3549 and 0.1282 and 0.4268; the activity at 1 µM was 26.6%. Moreover, in assay [1] (3 μM), the “GDPs current density (normalized)” value was 0.1082 and 0.484 and 0.1443 and 0.1442 and 0.08715 and 0 and 0.175; the activity at 3 µM worked out at 16.3%. In assay [1] (10 μM), the “GDPs current density (normalized)” value was 0.1092 and 0 (2×) and 0.04 (2×) and 0.05; the activity at 10 µM was found to be 3.99%. Also, in assay [1], the “block of GDPs in CA3 pyramidal neurons” value was “able to block GDPs”. For the same compound, in assay [2], the anticonvulsive activity entry is reported as “potent anticonvulsive activity” and the “suppression of GABAAR-mediated depolarization during SLEs” value was “potently suppressed”. The activity at 2 µM in assay [2] (Pyramidal neuron, 0.5 h, fraction of control, n=5, two-tailed paired t-test, p=5*e^−4, read-out: post-tetanus spike frequency, of control) turned out to be 27 ± 7%.

On to `CCCCNc1cc(C(=O)O)cc(S(=N)(=O)Nc2ccccc2)c1Oc1ccccc1` (stereo not drawn) [Compound 57, 3-(anilinosulfonimidoyl)-5-(butylamino)-4-phenoxy-benzoic acid], for which, in assay [1] (0.1 μM), the “GDPs current density (normalized)” value is 1.067 and 0.6415 and 0.36 and 0.7716 and 1.279 and 0.8652 and 0.5079 and 0.901; the activity at 0.1 µM is 79.9%. In assay [1] (0.3 μM), the “GDPs current density (normalized)” value was 0.3666 and 0.448 and 0.5922 and 0.1844 and 0.9957 and 0.5556 and 0.7164; the activity at 0.3 µM came to 55.1%. Moreover, in assay [1] (1 μM), the “GDPs current density (normalized)” value is 0.5108 and 0.3317 and 0.1389 and 0.1288 and 0.09779 and 0.191 and 0.2683 and 0.352; the activity at 1 µM was determined as 25.2%. Besides, in assay [1] (3 μM), the “GDPs current density (normalized)” value was 0.06999 and 0.4997 and 0.2222 and 0.0431 and 0.2732 and 0.2642 and 0; the activity at 3 µM was 19.6%. In addition, in assay [1] (10 μM), the “GDPs current density (normalized)” value is 0.06399 and 0.2068 and 0 (3×); the activity at 10 µM was 5.42%. Besides, the “block of GDPs in CA3 pyramidal neurons” value in assay [1] was “able to block GDPs”. In assay [2], the anticonvulsive activity entry is listed as “potent anticonvulsive activity” and the “suppression of GABAAR-mediated depolarization during SLEs” value is “potently suppressed”.
